Experimental data reported in patent US9708247B2, “Modulators of the eIF2alpha pathway” (The Regents of the University of California, priority 2013, dated 2017).
Like-named read-outs stand apart in the source and are kept apart here.

Tests used:
ATF4 luciferase reporter = ATF4 luciferase reporter assay (Cell-luc) in HEK293T cells; format: cell-based, human
Text: FIGS. 1A-1C. […]
To identify inhibitors of PERK signaling, we engineered a reporter that allows monitoring of PERK activation in living cells. To this end, we constructed a retroviral vector containing the open-reading frame of firefly luciferase fused to the 5′UTR of ATF4 mRNA (FIG. 1A), which contains two short open-reading frames (uORFs) that control ATF4 translation in a stress-dependent manner. After infection, we established a HEK293T cell line harboring the stably integrated reporter. […] This format was used to screen 106,281 compounds covering a wide chemical space. We identified 460 hits (0.43%) (FIG. 1C), which were further validated in an 8-point dose-response assay using the same reporter. We further triaged the compounds by discarding inhibitors that also affected the IRE1 branch of the UPR using an XBP1-luciferase splicing reporter. […] We next used an orthogonal secondary screen that employed a different reporter (bi-cistronic ATF4-dGFPIRES-mCherry) stably integrated into a different cell line (U20S cells). The read-out of this latter screen was microscopy-based, which allowed us to simultaneously assess acute toxicity by cell counting, further reducing the number of viable hits to 77. As a tertiary screen, we tested compounds for their ability to inhibit ER stress-elicited induction of endogenous ATF4 by Western blot analysis. Twenty-eight compounds passed this test and were analyzed further.
ATF4 reporters were constructed by fusing the human full-length ATF4 5′-UTR (NCBI Accession BC022088.2) in front of the firefly luciferase (FLuc) or a destabilized eGFP (dEGFP) coding sequences lacking the initiator methionine.
The ATF4-FLuc reporter was generated by cloning a PCR-product containing the ATF4 full-length 5′-UTR (from +1 position a the transcription start site down to one nucleotide after the terminator codon of the second uORF) flanked by KpnI/XhoI and BglII sites at the 5′ and 3′ ends, respectively, into the KpnI-BglII sites of pCAX-F-XBP1-Luc. The resulting construct, pCAX-ATF4-FLuc, was then digested with BamHI, blunted with T4 DNA polymerase, and then digested with XhoI. The resulting fragment was then subcloned into the retroviral expression vector pLPCX (Clontech) after digesting it with HindIII, blunting with T4 DNA polymerase and then digesting with XhoI to generate pLPCX-ATF4-FLuc (DAA-312). DAA-312 was used to produce recombinant retroviruses using standard methods and the resulting viral supernatant was used to transduce HEK293T cells, which were then subsequently selected with puromycin to generate a stable cell line employed in the primary screen.
HEK293T cells carrying the ATF4 luciferase reporter were plated on poly-lysine coated 384 well plates (Greiner) at 30,000 cells per well. […] Luminescence was measured using One Glo (Promega) as specified by the manufacturer. […] Thus, these were considered unique to the PERK branch and were cherry-picked for further analysis.

auditory fear memory = test: Cannulation and auditory fear conditioning; format: in vivo, rat; details: rats, infused into amygdala, vs vehicle
Procedure: Male Sprague Dawley rats (275-350 g) were used for cannulation as described in Migues et al, 2010 (46). ISRIB (0.05 mg/ml, […]) was infused bilaterally into the amygdala immediately after auditory fear conditioning training. The infusion was performed with a microinjector (28 gauge) connected to a Hamilton syringe with plastic tubing at a rate of 0.4 μl/min. To allow for the solution containing ISRIB to diffuse from the tip of the cannula into the tissue, the microinjector stayed in the cannula for one additional minute. Training protocol for auditory fear conditioning consisted of a 2-min period of context A exploration, followed by one pairing of a tone (2800 Hz, 85 dB, 30 s) with a co-terminating foot shock (0.75 mA, 1 s). Rats were returned to their home cage 1 min after the shock. Test for auditory fear memory consisted of a 2 min acclimatizing period to the context B (pre-CS), followed by tone presentation (CS) (2800 Hz, 85 dB, 30 s). Freezing time was measured and percent of freezing was calculated. At the end of the experiment, cannula placement was checked by examining 50 μm brain sections stained with formal-thionin under a light microscope.

HEK293T cells = format: cell-based, human; details: 2 μg/mL tunicamycin plus 200 nM ISRIB, 24 h
Text: FIGS. 5A-5D. […]

IL-6 = test: Serum IL-6 after surgery (ELISA); format: in vivo, mouse; details: mice, perioperative administration, 24 h after surgery
Text: FIG. 26. Experimental design for measuring postsurgical cognitive dysfunction and effects of ISRIB on cognitive function; measurement of memory is a behavioral test using trace fear conditioning (TFC), which aims to establish a permanent memory in animals by using sensorial information; associative learning is presented with a neutral conditioning stimulus, paired with an aversive unconditioning stimulus (e.g. shock); freezing by the animal corresponds to the ability of the animal to retain memory from the context in which it has been trained. Separate cohorts of animals were used to assess inflammatory status 24 h after surgery. Downwards arrows represent injection points.
FIG. 28. […] Levels were measured using an enzyme-linked immunosorbent kit.

## O=C(COc1ccc(Cl)cc1)NC1CCC(NC(=O)COc2ccc(Cl)cc2)CC1 (stereo not drawn) [ISRIB]
ATF4 luciferase reporter; cultured HEK293T cells, 2 μg/ml tunicamycin, 7 h, synthesized isomers, read-out: IC50, inhibition of the ATF4-luciferase reporter
  IC50: 5 nM
ATF4 luciferase reporter; screening library sample, likely a mixture of the two stereoisomers, read-out: IC50 of the library compound
  IC50: 40 nM
Auditory fear memory; 3 h
  freezing to tone (CS), short-term memory: no difference
Auditory fear memory; 24 h, p<0.05
  freezing to tone (CS), long-term memory: significant increase
HEK293T cells
  cell survival of ER-stressed cells (colony number and size): strong synergistic effect
IL-6
  serum IL-6 increase after surgery: abrogated the increase in IL6
